Assay [1] concerns the target T1, recombinant human Lp-PLA2 (Homo sapiens, UniProt Q13093).
T1 sequence (Q13093 22-441): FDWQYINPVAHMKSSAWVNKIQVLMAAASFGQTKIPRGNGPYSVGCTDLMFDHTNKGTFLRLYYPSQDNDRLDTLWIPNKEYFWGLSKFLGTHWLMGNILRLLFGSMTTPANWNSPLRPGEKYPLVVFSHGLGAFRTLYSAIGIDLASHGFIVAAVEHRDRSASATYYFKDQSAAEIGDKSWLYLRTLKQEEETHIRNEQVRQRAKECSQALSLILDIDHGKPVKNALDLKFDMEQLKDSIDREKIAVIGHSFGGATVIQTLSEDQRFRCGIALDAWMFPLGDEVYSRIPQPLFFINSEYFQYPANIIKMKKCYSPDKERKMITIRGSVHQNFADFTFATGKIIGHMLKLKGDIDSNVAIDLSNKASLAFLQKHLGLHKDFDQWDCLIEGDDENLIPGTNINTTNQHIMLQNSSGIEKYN
As to the kind of experiment: Recombinant human Lp-PLA2 assay (rhLp-PLA2, PED6 assay). Format: biochemical. From the text:
(1) Recombinant Human Lp-PLA2 Assay (rhLp-PLA2) (Also Referred to as “PED6” Assay)
N-((6-(2,4-dinitrophenyl)amino)-hexanoyl)-2-(4,4-difluoro-5,7-dimethyl-4-bora-3a,4a-diaza-s-indacene-3-pentanoyl)-1-hexadecanoyl-sn-glycero-3-phosphoethanolamine, triethylammonium salt (PED6) is a commercially available fluorescently-labeled phospholipid, which is commercially available from Invitrogene and Molecular Probes. There is a quenching para-nitro phenyl (PNP) group in the sn3 position and a Bodipy fluorescein (FL) group in the sn2 position. Upon cleavage with Lp-PLA2, the Bodipy FL group is liberated and then may result in an increase in fluorescence. Inhibitors of Lp-PLA2 therefore prevent this cleavage and no fluorescent increase is observed.
The PED6 assay was run as an unquenched 10 μL assay. The source plate containing the compounds to be tested was prepared by making 1:3 (by volume) serial dilution of the compounds within DMSO on 384-well microplate. Then, 0.01 μL of the compounds on compound source plate were transferred into 384 well Greiner 784076 (black) plates using ECHO liquid dispenser. 5 μL of recombinant human Lp-PLA2 enzyme (4 nM (or 110 pM) rhLp-PLA2 in assay buffer of 50 mM HEPES, pH 7.4, 150 mM NaCl, 1 mM CHAPS) was added to each well of the plate. Plates were centrifuged for 10 sec at 500 rpm. After 30 minutes preincubation, 5 μL of substrate (4 μM (or 5 μM) PED6 [from 5 mM DMSO stock] in assay buffer of 50 mM HEPES, pH 7.4, 150 mM NaCl, 1 mM CHAPS) was added to 384 well Greiner 784076 (black) plates. Plates were centrifuged for 10 sec at 500 rpm. The plate was covered to protect it from light and incubated for 20 min at room temperature. The plates were read for fluorescence intensity at ex: 480/em: 540 using ViewLux microplate imager for Envision spectrofluroimeters. pIC50 data, curve and QC analysis was conducted by using XL fit module in Excel.

The next assay deals with T2, Lp-PLA2 in human plasma (Homo sapiens, UniProt Q13093).
T2 construct: from tissue; host or cells: pooled human plasma
T2 sequence (Q13093 22-441): T1 sequence (Q13093 22-441)
As to the kind of experiment: Lp-PLA2 human plasma assay (Thio-PAF assay). Format: biochemical. To be noted: pooled human plasma; read-out: pIC50 values in the thio-PAF assay (converted). The procedure, abridged:
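Pooled human plasma preincubated 30 min with compound, then 2-thio-PAF substrate added with CPM and NEM in 50 mM HEPES pH 7.4, 150 mM NaCl, 1 mM CHAPS. Quenched with TFA after 2 min, incubated 40 min at room temperature, and read by fluorescence at ex 380/em 485 nm. Values given as pIC50.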

Where [2] appears, read: read-out: pIC50 values in the recombinant human Lp-PLA2 assay (converted).
Setting [3] is: read-out: rhLp-PLA2 (PED6 assay) (pIC50) (converted).

Like-named read-outs stand apart in the source and are kept apart here.

Take `C[C@H]1CCn2c(cc(OCc3ccc(Oc4cccc(C(F)(F)F)c4)c(F)c3)nc2=O)N1C` [E91, (S)-8-((3-fluoro-4-(3-(trifluoromethyl)phenoxy)benzyl)oxy)-1,2-dimethyl-3,4-dihydro-1H-pyrimido[1,6-a]pyrimidin-6(2H)-one]: the values for the IC50 (in assay [1] (setting [2]); at Lp-PLA2 in human plasma) were not above 1 nM and not above 10 nM, respectively.

In the case of `C[C@H]1CCn2c(cc(OCc3ccc(Oc4cccc(F)c4)c(C#N)c3)nc2=O)N1C` [E92, (S)-5-(((1,2-dimethyl-6-oxo-2,3,4,6-tetrahydro-1H-pyrimido[1,6-a]pyrimidin-8-yl)oxy)methyl)-2-(3-fluorophenoxy)benzonitrile], the IC50 was not above 1 nM in assay [1] (setting [2]) and not above 10 nM at Lp-PLA2 in human plasma.

`C[C@H]1CCn2c(cc(OCc3ccc(Oc4ccc(C(F)(F)F)cc4)c(F)c3)nc2=O)N1C` [E93, (S)-8-((3-fluoro-4-(4-(trifluoromethyl)phenoxy)benzyl)oxy)-1,2-dimethyl-3,4-dihydro-1H-pyrimido[1,6-a]pyrimidin-6(2H)-one]: the IC50 was not above 1 nM in assay [1] (setting [2]) and not above 10 nM on Lp-PLA2 in human plasma.

With `C[C@H]1CCn2c(cc(OCc3cc(F)c(Oc4ccc(F)cc4)c(F)c3)nc2=O)N1C` [E94, (S)-8-((3,5-difluoro-4-(4-fluorophenoxy)benzyl)oxy)-1,2-dimethyl-3,4-dihydro-1H-pyrimido[1,6-a]pyrimidin-6(2H)-one], the IC50 in assay [1] (setting [2]) is not above 1 nM; at Lp-PLA2 in human plasma it was not above 100 nM.

Consider `C[C@H]1CCn2c(cc(OCc3cc(F)c(Oc4ccc(Cl)cc4)c(F)c3)nc2=O)N1C` [E95, (S)-8-((4-(4-chlorophenoxy)-3,5-difluorobenzyl)oxy)-1,2-dimethyl-3,4-dihydro-1H-pyrimido[1,6-a]pyrimidin-6(2H)-one], for which the values for the IC50 (in assay [1] (setting [2]); on Lp-PLA2 in human plasma) were not above 1 nM and not above 100 nM, respectively.

Regarding `C[C@H]1CCn2c(cc(OCc3cc(F)c(Oc4cccc(F)c4)c(F)c3)nc2=O)N1C` [E96], the IC50 in assay [1] (setting [2]) is not above 1 nM; on Lp-PLA2 in human plasma, not above 100 nM.

For `C[C@@H]1CCn2c(cc(OCc3cc(F)c(Oc4cnc(C(F)(F)F)nc4)c(F)c3)nc2=O)N1C` [E97, (R)-8-((3,5-difluoro-4-((2-(trifluoromethyl)pyrimidin-5-yl)oxy)benzyl)oxy)-1,2-dimethyl-3,4-dihydro-1H-pyrimido[1,6-a]pyrimidin-6(2H)-one], the IC50 in assay [1] (setting [2]) was not above 1 nM; in assay [1] (setting [3]), 0.1 nM; at Lp-PLA2 in human plasma it was not above 10 nM.

On to `C[C@H]1CCn2c(cc(OCc3ccc(Oc4cccc(C(F)(F)F)c4)c(C#N)c3)nc2=O)N1C` [E98, (S)-5-(((1,2-dimethyl-6-oxo-2,3,4,6-tetrahydro-1H-pyrimido[1,6-a]pyrimidin-8-yl)oxy)methyl)-2-(3-(trifluoromethyl)phenoxy)benzonitrile], for which the IC50 in assay [1] (setting [2]) was not above 1 nM; at Lp-PLA2 in human plasma, not above 10 nM.

Take `C[C@H]1CCn2c(cc(OCc3ccc(Oc4ccc(F)c(F)c4)c(C#N)c3)nc2=O)N1C` [E99, (S)-2-(3,4-difluorophenoxy)-5-(((1,2-dimethyl-6-oxo-2,3,4,6-tetrahydro-1H-pyrimido[1,6-a]pyrimidin-8-yl)oxy)methyl)benzonitrile]: the IC50 in assay [1] (setting [2]) is not above 1 nM; on Lp-PLA2 in human plasma, not above 10 nM.

Regarding `C[C@@H]1CCn2c(cc(OCc3cc(F)c(Oc4ccc(F)c(F)c4)c(F)c3)nc2=O)N1C` [E101, (R)-8-((4-(3,4-difluorophenoxy)-3,5-difluorobenzyl)oxy)-1,2-dimethyl-3,4-dihydro-1H-pyrimido[1,6-a]pyrimidin-6(2H)-one], the IC50 in assay [1] (setting [2]) is not above 1 nM; on Lp-PLA2 in human plasma, not above 10 nM.

For `C[C@@H]1CCn2c(cc(OCc3ccc(Oc4cccc(F)c4)c(C#N)c3)nc2=O)N1C` [E102, (R)-5-(((1,2-dimethyl-6-oxo-2,3,4,6-tetrahydro-1H-pyrimido[1,6-a]pyrimidin-8-yl)oxy)methyl)-2-(3-fluorophenoxy)benzonitrile], the IC50 is not above 1 nM in assay [1] (setting [2]) and not above 10 nM on Lp-PLA2 in human plasma.

As to `C[C@@H]1CCn2c(cc(OCc3cc(F)c(Oc4cccc(F)c4)c(F)c3)nc2=O)N1C` [E103, (R)-8-((3,5-difluoro-4-(3-fluorophenoxy)benzyl)oxy)-1,2-dimethyl-3,4-dihydro-1H-pyrimido[1,6-a]pyrimidin-6(2H)-one], the IC50 in assay [1] (setting [2]) was not above 1 nM; on Lp-PLA2 in human plasma, not above 100 nM.

`C[C@H]1CCn2c(cc(OCc3cc(F)c(Oc4cnc(C(F)(F)F)nc4)c(F)c3)nc2=O)N1C` [E104, (S)-8-((3,5-difluoro-4-((2-(trifluoromethyl)pyrimidin-5-yl)oxy)benzyl)oxy)-1,2-dimethyl-3,4-dihydro-1H-pyrimido[1,6-a]pyrimidin-6(2H)-one]: the IC50 was not above 1 nM in assay [1] (setting [2]) and not above 100 nM at Lp-PLA2 in human plasma.

As to `C[C@H]1CCn2c(cc(OCc3ccc(Oc4ccc(C(F)(F)F)c(F)c4)cc3)nc2=O)N1C` [E105, (S)-8-((4-(3-fluoro-4-(trifluoromethyl)phenoxy)benzyl)oxy)-1,2-dimethyl-3,4-dihydro-1H-pyrimido[1,6-a]pyrimidin-6(2H)-one], the IC50 in assay [1] (setting [2]) is not above 1 nM; at Lp-PLA2 in human plasma it was not above 100 nM.

As to `C[C@H]1CCn2c(cc(OCc3cc(F)c(Oc4ccc(F)c(Cl)c4)c(F)c3)nc2=O)N1C` [E106, (S)-8-((4-(3-chloro-4-fluorophenoxy)-3,5-difluorobenzyl)oxy)-1,2-dimethyl-3,4-dihydro-1H-pyrimido[1,6-a]pyrimidin-6(2H)-one], the IC50 in assay [1] (setting [2]) is not above 1 nM; at Lp-PLA2 in human plasma, not above 100 nM.

Regarding `C[C@H]1CCn2c(cc(OCc3ccc(Oc4cnc(C(F)(F)F)nc4)c(F)c3)nc2=O)N1C` [E107, (S)-8-((3-fluoro-4-((2-(trifluoromethyl)pyrimidin-5-yl)oxy)benzyl)oxy)-1,2-dimethyl-3,4-dihydro-1H-pyrimido[1,6-a]pyrimidin-6(2H)-one], the IC50 was not above 1 nM in assay [1] (setting [2]), 0.398 nM in assay [1] (setting [3]) and not above 100 nM on Lp-PLA2 in human plasma.

`C[C@@H]1CCn2c(cc(OCc3ccc(Oc4ccc(C(F)(F)F)c(F)c4)cc3)nc2=O)N1C` [E108, (R)-8-((4-(3-fluoro-4-(trifluoromethyl)phenoxy)benzyl)oxy)-1,2-dimethyl-3,4-dihydro-1H-pyrimido[1,6-a]pyrimidin-6(2H)-one]: the IC50 in assay [1] (setting [2]) was not above 1 nM; on Lp-PLA2 in human plasma, not above 100 nM.

Regarding `C[C@@H]1CCn2c(cc(OCc3cc(F)c(Oc4ccc(F)c(Cl)c4)c(F)c3)nc2=O)N1C` [E109], the results for the IC50 (in assay [1] (setting [2]); at Lp-PLA2 in human plasma) were not above 1 nM and not above 10 nM, respectively.

Turning to `C[C@@H]1CCn2c(cc(OCc3ccc(Oc4cnc(C(F)(F)F)nc4)c(F)c3)nc2=O)N1C` [E110, (R)-8-((3-fluoro-4-((2-(trifluoromethyl)pyrimidin-5-yl)oxy)benzyl)oxy)-1,2-dimethyl-3,4-dihydro-1H-pyrimido[1,6-a]pyrimidin-6(2H)-one], the IC50 is not above 1 nM in assay [1] (setting [2]), 0.631 nM in assay [1] (setting [3]) and not above 100 nM at Lp-PLA2 in human plasma.

As for `CN1c2cc(OCc3ccc(Oc4ccc(F)c(F)c4)c(C#N)c3)nc(=O)n2CCC1(C)C` [E111, 2-(3,4-difluorophenoxy)-5-(((1,2,2-trimethyl-6-oxo-2,3,4,6-tetrahydro-1H-pyrimido[1,6-a]pyrimidin-8-yl)oxy)methyl)benzonitrile], the IC50 in assay [1] (setting [2]) was not above 1 nM; on Lp-PLA2 in human plasma, not above 10 nM.

Regarding `CN1c2cc(OCc3ccc(Oc4ccc(C(F)(F)F)nc4)c(C#N)c3)nc(=O)n2CCC1(C)C` [E112, 2-((6-(trifluoromethyl)pyridin-3-yl)oxy)-5-(((1,2,2-trimethyl-6-oxo-2,3,4,6-tetrahydro-1H-pyrimido[1,6-a]pyrimidin-8-yl)oxy)methyl)benzonitrile], the figures for the IC50 (in assay [1] (setting [2]); on Lp-PLA2 in human plasma) were not above 1 nM and not above 10 nM, respectively.

The values above are taken from patent US20150344485A1, “BICYCLIC PYRIMIDONE COMPOUNDS AS INHIBITORS OF LP-PLA2” (GLAXOSMITHKLINE INTELLECTUAL PROPERTY DEVELOPMENT LIMITED, priority 2013, published 2015).
